Assay results from patent publication US8314060B2, “Peptide conjugated anti-cancer prodrugs” (BioSight Ltd., priority 2000, dated 2012).
Non-standard residues stand in square brackets, D forms with d. Residues, ends and D or L forms follow the SMILES beside them. No end group written: not given here. *: point of attachment. Phe(4-N(CH2CH2Cl)2) = N[C@@H](Cc1ccc(N(CCCl)CCCl)cc1)C(=O)O; Chlorambucil = O=C(CCCc1ccc(N(CCCl)CCCl)cc1)*

Experiments:
HUVEC = assay: MTT assay for estimation of toxicity, HUVEC (normal cells); format: cell-based, human
Experimental: (§1) Human umbilical vein-derived endothelial cells (HUVEC) were prepared from umbilical veins and cultured as described previously. The HUVE cells were grown in M199 medium supplemented with 20% fetal calf serum, vitamins, 1 ng/ml hbFGF, and antibiotics.
(§2) HUVEC or melanoma cells were seeded in 96-well ELISA dish at a concentration of 10,000-20,000 cells/well, and various concentrations of the prodrug 1 were added to the wells as described in Example 17. As a control, Melphalan was added under the same experimental conditions. After 72 hours the medium was aspirated, and DMEM containing 5% FCS and 0.5 mg/ml MTT (an indicator of cell viability) was added. The cells were incubated for 2-4 hours at 37° C. and 5% CO2. At the end of the incubation the cells were washed with phosphate buffer saline (PBS), and dissolved with DMSO. The results were analysed using Techan ELISA reader equipped with a 570 nm filter.

[1] = tested on: Human umbilical vein-derived endothelial cells (HUVEC); assay: Tissue culture cell counting (cell coulter) after 72 hours, HUVEC (normal cells); format: cell-based
Experimental: as §1
(§3) To determine the biological activity of the drugs, HUVEC (normal cells) or melanoma (cancer) cells were seeded in 24-well dish at a concentration of 10,000-20,000 cells/well, and increasing concentrations of the prodrug 3-Peptide I-Chlorambucil (P-CAC) were added to the wells. As controls, either Cholorambucil or the peptide carrier was added under the same experimental conditions. After 72 hours the cells were washed with phosphate buffer saline (PBS), suspended with 0.5% EDTA/PBS, and counted using cell coulter (Electronics ZM). Cell viability was verified by trypan-blue staining and hemocytometer analysis. IC50 indicates the concentration of the drug measured at 50% of the cell death.

purified MMPs = assay: In-vitro release of Chlorambucil from the peptide carrier by purified MMPs; format: biochemical
Experimental: (§4) In-vitro release of Chlorambucil from the peptide carrier was carried out in a liquid phase as described in Example 19. Peptide I-Chlorambucil was dissolved in PBS, and incubated for 2 hours at 37° C. in the absence or presence of purified MMPs, or in the presence of conditioned medium of either human melanoma cells (HMCM) or human breast cancer cells (BCCM).
(§5) At the end of the incubation the reaction mixture was incubated with heparin-sepharose (30 minutes at 0° C.). The supernatant was collected, and the release of free chlorambucil was monitored by spectrophotometer at a wavelengh of 305 nm.

[2] = tested on: MMPs secreted by cancer cells (conditioned medium of human melanoma cells HMCM or human breast cancer cells BCCM); assay: In-vitro release of Chlorambucil from the peptide carrier by cancer cell conditioned medium; format: biochemical; settings: PBS, 2 hours at 37° C., FIG. 6
Experimental: To find out whether proteases are secreted to the conditioned medium of cancer cells, breast cancer cells or melanoma cells were grown to sub-confluence in a 10 cm dish. The cells were washed with PBS, and further incubated with serum free medium. HUVE cells were grown to confluence at 10 cm dish. The cells were washed with M-199 medium, and conditioned with M-199 with 1% heat inactivated serum. The conditioned medium was collected after 24 hours.
as §4, §5

[3] = tested on: Human melanoma cells (WW-94); assay: Tissue culture cell counting (cell coulter) after 72 hours, melanoma cells; format: cell-based; settings: melanoma (cancer) cells, FIG. 4A, read-out: IC50 (concentration of the drug measured at 50% of the cell death)
Experimental: (§6) Human melanoma cells (WW-94) were grown in 50% DMEM/50% F-12 medium supplemented with 10% fetal calf serum and antibiotics.
as §3

melanoma cells = assay: MTT assay for estimation of toxicity, melanoma cells; format: cell-based; settings: Homo sapiens, 72 hours, FIG. 5B
Experimental: as §6, §2

CC[C@H](C)[C@H](NC(=O)CNC(=O)[C@H](CC(C)C)NC(=O)[C@H](CC(C)C)NC(=O)CNC(=O)[C@H](Cc1ccc(O)cc1)NC(=O)[C@@H](N)Cc1ccc(N(CCCl)CCCl)cc1)C(=O)N[C@@H](C)C(=O)NCC(=O)N1CCC[C@H]1C(=O)N1CCC[C@H]1C(=O)NCC(=O)N1CCC[C@H]1C(=O)N1CCC[C@H]1C(=O)N[C@@H](CC(C)C)C(=O)N[C@@H](Cc1ccc(O)cc1)C(=O)N[C@@H](CCCCN)C(=O)N[C@@H](CCCCN)C(=O)N[C@H](C(=O)N[C@H](C(=O)N[C@@H](CCCCN)C(=O)N[C@@H](CCCCN)C(=O)N[C@@H](CC(C)C)C(=O)N[C@@H](CC(C)C)C(=O)N[C@@H](CCC(N)=O)C(=O)N[C@@H](CO)C(=O)O)[C@@H](C)CC)[C@@H](C)CC [Prodrug 1, Peptide I-Melphalan] (H-[Phe(4-N(CH2CH2Cl)2)]YGLLGIAGPPGPPLYKKIIKKLLQS-OH; N-terminus and C-terminus assumed)
times less toxic to normal cells (HUVEC; HUVE cells versus melanoma cells): 7 times

CC[C@H](C)[C@H](NC(=O)CNC(=O)[C@H](CC(C)C)NC(=O)[C@H](CC(C)C)NC(=O)CNC(=O)[C@H](Cc1ccc(O)cc1)NC(=O)CCCc1ccc(N(CCCl)CCCl)cc1)C(=O)N[C@@H](C)C(=O)NCC(=O)N1CCC[C@H]1C(=O)N1CCC[C@H]1C(=O)NCC(=O)N1CCC[C@H]1C(=O)N1CCC[C@H]1C(=O)N[C@@H](CC(C)C)C(=O)N[C@@H](Cc1ccc(O)cc1)C(=O)N[C@@H](CCCCN)C(=O)N[C@@H](CCCCN)C(=O)N[C@H](C(=O)N[C@H](C(=O)N[C@@H](CCCCN)C(=O)N[C@@H](CCCCN)C(=O)N[C@@H](CC(C)C)C(=O)N[C@@H](CC(C)C)C(=O)N[C@@H](CCC(N)=O)C(=O)N[C@@H](CO)C(=O)O)[C@@H](C)CC)[C@@H](C)CC [Prodrug 3, Peptide I-Chlorambucil] (Chlorambucil-YGLLGIAGPPGPPLYKKIIKKLLQS-OH)
times less toxic to normal cells ([1]; HUVE cells versus melanoma cells, cell counting): 30 times
effect of heparin on release of the chemotherapeutic agent from the peptide carrier (purified MMPs; presence of 10 μg/ml heparin, 2 hours incubation): inhibited the release
release of free chlorambucil from the peptide carrier (purified MMPs; purified MMPs, PBS, 2 hours at 37° C., read at 305 nm, FIG. 6): can be released
release of free chlorambucil from the peptide carrier [2]: can be released

O=C(O)CCCc1ccc(N(CCCl)CCCl)cc1 [Chlorambucil, reference compound]
IC50 [3]: 2000 nM
IC50 ([1]; Homo sapiens, HUVEC, HUVE (normal) cells, 72 hours, cell counting, FIG. 4B, read-out: IC50 (concentration of the drug measured at 50% of the cell death)): 2000 nM

N[C@@H](Cc1ccc(N(CCCl)CCCl)cc1)C(=O)O [Melphalan, reference compound]
IC50 (melanoma cells): 70 nM
IC50 (HUVEC; Homo sapiens, HUVEC, HUVE cells, 72 hours, FIG. 5A): 100 nM

YGLLGIAGPPGPPLYKKIIKKLLQS [peptide carrier]
toxicity to HUVEC ([1]; HUVEC, 72 hours, FIG. 4): not toxic
